For the assay, the target named is human α7 nicotinic ACh receptor (nAChR) (Homo sapiens, UniProt P36544). Format: cell-based.

pIC50: −log10 of the molar value.

human α7 nicotinic ACh receptor (nAChR), sequence (P36544 23-502): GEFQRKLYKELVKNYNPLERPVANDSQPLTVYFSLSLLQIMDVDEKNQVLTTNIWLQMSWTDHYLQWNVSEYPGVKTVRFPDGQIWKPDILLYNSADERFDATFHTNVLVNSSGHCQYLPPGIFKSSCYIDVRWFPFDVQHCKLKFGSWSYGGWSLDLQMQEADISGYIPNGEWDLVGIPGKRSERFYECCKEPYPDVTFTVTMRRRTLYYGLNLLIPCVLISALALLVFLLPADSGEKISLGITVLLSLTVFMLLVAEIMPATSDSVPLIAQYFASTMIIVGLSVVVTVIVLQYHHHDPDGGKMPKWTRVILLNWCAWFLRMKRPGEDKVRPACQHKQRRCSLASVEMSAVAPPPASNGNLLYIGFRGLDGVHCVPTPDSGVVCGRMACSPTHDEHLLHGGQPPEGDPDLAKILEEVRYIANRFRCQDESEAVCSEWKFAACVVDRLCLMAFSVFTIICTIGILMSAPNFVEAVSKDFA

Take Conazolium A [compound 1]: the negative logarithm of the IC50 (pIC50) is 4.61.

What is called pIC50 is the IC50 on a negative log10 scale, so that one unit is a factor of ten. Low values mean a large IC50, high ones a small IC50.
